# Measured values from ChEMBL document CHEMBL1126649, “Development of a pharmacophore for inhibition of human liver cytochrome P-450 2D6: molecular modeling and inhibition studies” (J Med Chem, 1993).
# What was measured:
# Cytochrome P450 2D6 [1] = target: T1, Cytochrome P450 2D6 (Homo sapiens, UniProt P10635); test: Inhibitory effect on Bufuralol 1'-hydroxylation by human liver microsomes (Ki = apparent inhibition constant); format: ADME, Microsome
# Cytochrome P450 2D6 [2] = target: T1, Cytochrome P450 2D6
# Cytochrome P450 2D6 [3] = target: T1, Cytochrome P450 2D6; remark: listed apart in the source
# Cytochrome P450 2D6 [4] = target: T1, Cytochrome P450 2D6; remark: listed apart in the source
# Cytochrome P450 2D6 [5] = target: T1, Cytochrome P450 2D6; test: Apparent inhibitory constant (Ki) for Bufuralol 1'-hydroxylation by human liver microsomes; format: ADME, Microsome
# Cytochrome P450 2D6 [6] = target: T1, Cytochrome P450 2D6; test: Inhibition of partially purified cytochrome P450 2D6 1'-hydroxybufuralol formation
# Cytochrome P450 2D6 [7] = target: T1, Cytochrome P450 2D6; remark: listed apart in the source
# Cytochrome P450 2D6 [8] = target: T1, Cytochrome P450 2D6; remark: listed apart in the source
# Cytochrome P450 2D6 [9] = target: T1, Cytochrome P450 2D6; test: Inhibitory constant for cytochrome P450 2D6; format: ADME
# Cytochrome P450 2D6 [10] = target: T1, Cytochrome P450 2D6; remark: listed apart in the source
# T1 sequence (P10635 whole entry): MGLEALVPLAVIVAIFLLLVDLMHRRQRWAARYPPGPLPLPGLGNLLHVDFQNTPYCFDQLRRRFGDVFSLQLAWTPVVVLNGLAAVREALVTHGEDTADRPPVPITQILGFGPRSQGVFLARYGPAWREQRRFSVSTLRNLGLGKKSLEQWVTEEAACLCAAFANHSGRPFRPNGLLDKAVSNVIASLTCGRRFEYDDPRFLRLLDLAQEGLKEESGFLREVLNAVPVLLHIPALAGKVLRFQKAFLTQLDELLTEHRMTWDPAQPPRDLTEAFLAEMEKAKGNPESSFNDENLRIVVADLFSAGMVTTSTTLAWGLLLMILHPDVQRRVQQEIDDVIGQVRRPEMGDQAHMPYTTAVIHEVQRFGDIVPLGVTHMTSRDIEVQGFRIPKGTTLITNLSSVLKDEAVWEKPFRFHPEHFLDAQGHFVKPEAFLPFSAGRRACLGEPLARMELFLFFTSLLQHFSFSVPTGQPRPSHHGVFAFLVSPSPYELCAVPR
compound,measurement,setting,value
C=CC1C[N+]2(c3ccccc3)CCC1CC2C(O)c1ccnc2ccc(OC)cc12 (centres undefined),Ki,Cytochrome P450 2D6 [1],25 µM
COc1ccc2[nH]cc(CCO)c2c1,Ki,Cytochrome P450 2D6 [1],100 µM
COc1ccc2ncccc2c1,Ki,Cytochrome P450 2D6 [1],> 1000 µM
CC1OC=C(CO)[C@H]2C[C@H]3c4[nH]c5ccccc5c4CCN3CC12 (some centres undefined),Ki,Cytochrome P450 2D6 [1],1.1 µM
C=CC1CN2CCC1CC2C(=O)c1ccnc2ccc(OC)cc12 (centres undefined),Ki,Cytochrome P450 2D6 [1],0.72 µM
C=CC1CN2CCC1C[C@H]2[C@H](O)c1ccnc2ccc(Cl)cc12 (some centres undefined),Ki,Cytochrome P450 2D6 [1],3.5 µM
COC(=O)C1=CO[C@H](C)[C@H]2CN3CCc4c([nH]c5ccccc45)[C@@H]3C[C@H]12,Ki,Cytochrome P450 2D6 [1],0.017 µM
CCC1CN2CCC1CC2[C@H](O)c1ccnc2ccccc12 (some centres undefined),Ki,Cytochrome P450 2D6 [2],9.6 µM
same,Ki,Cytochrome P450 2D6 [3],8 µM
same,Ki,Cytochrome P450 2D6 [4],24 µM
C=CC1CN2CCC1C[C@@H]2[C@@H](O)c1ccnc2ccc(Cl)cc12 (some centres undefined),Ki,Cytochrome P450 2D6 [1],0.52 µM
COC(=O)C1=CNC(C)C2CN3CCc4c([nH]c5ccccc45)[C@@H]3C[C@H]12 (some centres undefined),Ki,Cytochrome P450 2D6 [1],2.9 µM
O=C(O)[C@H]1[C@H]2C[C@H]3c4[nH]c5ccccc5c4CCN3C[C@@H]2CC[C@H]1O,Ki,Cytochrome P450 2D6 [1],6.3 µM
COC(=O)C1=CO[C@@H](C)[C@H]2C[n+]3ccc4c([nH]c5ccccc54)c3C[C@H]12,Ki,Cytochrome P450 2D6 [1],2.2 µM
CCC1CN2CCC1CC2C(O)c1ccnc2ccccc12 (centres undefined),Ki,Cytochrome P450 2D6 [2],2.8 µM
same,Ki,Cytochrome P450 2D6 [3],1.6 µM
same,Ki,Cytochrome P450 2D6 [4],3.2 µM
C=CC1CN2CCC1C[C@@H]2[C@@H](O)c1ccnc2ccccc12 (stereo in doubt; 9b),Ki,Cytochrome P450 2D6 [5],3.5 µM
same,Ki,Cytochrome P450 2D6 [6],2.6 µM
same,Ki,Cytochrome P450 2D6 [7],1 µM
same,Ki,Cytochrome P450 2D6 [2],3.5 µM
same,Ki,Cytochrome P450 2D6 [3],3.5 µM
same,Ki,Cytochrome P450 2D6 [4],5.4 µM
C=CC1CN2CCC1C[C@@H]2[C@@H](O)c1ccnc2ccccc12 (stereo in doubt; 10b),Ki,Cytochrome P450 2D6 [1],7.5 µM
same,Ki,Cytochrome P450 2D6 [6],25 µM
same,Ki,Cytochrome P450 2D6 [8],9.3 µM
same,Ki,Cytochrome P450 2D6 [2],7.3 µM
same,Ki,Cytochrome P450 2D6 [3],7.5 µM
same,Ki,Cytochrome P450 2D6 [4],16 µM
COC(=O)C1=CO[C@@H](C)[C@H]2C=[N+]3CCc4c([nH]c5ccccc45)[C@@H]3C[C@H]12 [CATHENAMINE],Ki,Cytochrome P450 2D6 [1],3.2 µM
CCC1CN2CCC1CC2[C@@H](O)c1ccnc2ccc(OC)cc12 (some centres undefined) [DIHYDROQUINIDINE],Ki,Cytochrome P450 2D6 [1],0.066 µM
Cc1nccc2c1[nH]c1ccccc12 [HARMAN],Ki,Cytochrome P450 2D6 [1],86 µM
CC[C@H]1CN2CC[C@H]1C[C@H]2[C@H](O)c1ccnc2ccc(OC)cc12 [HYDROQUININE],Ki,Cytochrome P450 2D6 [1],4 µM
CN1[C@@H](CC(=O)c2ccccc2)CCC[C@H]1C[C@H](O)c1ccccc1 [LOBELINE],Ki,Cytochrome P450 2D6 [9],0.12 µM
CC(C)N1CCC(c2ccccc2)(c2ccccc2)CC1 [PRODIPINE],Ki,Cytochrome P450 2D6 [9],0.0048 µM
c1ccc2c(c1)[n-]c1c3[n+](ccc12)CC1CCCCC1C3 (centres undefined) [SEMPERVIRINE],Ki,Cytochrome P450 2D6 [1],9.7 µM
COC(=O)C1=CO[C@@H](C)[C@@H]2CN3CCc4c([nH]c5ccccc45)[C@@H]3C[C@H]12 [TETRAHYDROALSTONINE],Ki,Cytochrome P450 2D6 [1],1.1 µM
RAUWOLFIA SERPENTINA,Ki,Cytochrome P450 2D6 [5],0.0046 µM
same,Ki,Cytochrome P450 2D6 [10],0.0046 µM
